{"source": "paper PMC12040169", "about": "(PLOS Biology, 2025)"}
{"test": "in vitro", "details": "human, hela cells, % viability", "units": {"viability at 28.5 h, 10 µM": "%"}}
{"smiles": "COc1ccc([N+](=O)[O-])cc1NC(=O)N[C@@H]1CC[C@@]2(c3ccc(OC)c(OC)c3)CCN(C)[C@H]2C1", "note": "[CBK036449T]", "viability at 28.5 h, 10 µM": 111}
{"smiles": "Cc1ccc(S(=O)(=O)NCCCC(=O)Oc2cc3oc(=O)c4c(c3cc2Cl)CCC4)cc1", "note": "[CBK264967]", "viability at 28.5 h, 10 µM": 86.8}
{"smiles": "O=C(c1ccccc1)c1ccccc1-n1nccn1", "note": "[CBK013849]", "viability at 28.5 h, 10 µM": 99}
{"smiles": "O=C(O)CCC(=O)NN1C(=O)c2ccccc2NC1c1ccc(F)cc1", "note": "(stereo not drawn) [CBK286905]", "viability at 28.5 h, 10 µM": 84}
{"smiles": "O=C(CC1c2ccccc2Oc2ccccc21)Nc1ccc(Cc2ccncc2)cc1", "note": "[CBK263271]", "viability at 28.5 h, 10 µM": 91.6}
{"smiles": "CCc1cc2c(NCc3ccccc3)ncnc2s1", "note": "[CBK057944]", "viability at 28.5 h, 10 µM": 91.4}
{"smiles": "COc1ccc(C2(NCc3ccc(N4CCCC4=O)cc3)CC2)cc1", "note": "[CBK282834]", "viability at 28.5 h, 10 µM": 103}
{"smiles": "CC(C)(C)c1ccccc1NC(=O)N(CCCN)Cc1cc(F)cc(F)c1", "note": "[CBK034697C]", "viability at 28.5 h, 10 µM": 82.7}
{"smiles": "Cc1ccc(NC(=O)/C(C#N)=C/c2ccc(-c3ccccc3C(=O)O)o2)cc1Cl", "note": "[CBK263208]", "viability at 28.5 h, 10 µM": 102}
{"smiles": "O=S(=O)(CCOc1ccccc1)N(CCOc1ccccc1)C1CCCCC1", "note": "[CBK022003]", "viability at 28.5 h, 10 µM": 103}
{"smiles": "CC(C)[C@H](CO)Nc1nccnc1-c1cccc(O)c1", "note": "[CBK037542]", "viability at 28.5 h, 10 µM": 96.1}
{"smiles": "Cc1[nH]c(=O)[nH]c(=S)c1C(=O)Nc1ccc2c(c1)OCO2", "note": "[CBK115519]", "viability at 28.5 h, 10 µM": 100}
{"smiles": "CCn1nc(C)c(-c2cncn2CC(C)n2nc(C)cc2C)c1C", "note": "(stereo not drawn) [CBK281777]", "viability at 28.5 h, 10 µM": 109}
{"smiles": "Cc1ccc(OC(C)C(=O)N(C)c2ccccc2)cc1", "note": "(stereo not drawn) [CBK268645]", "viability at 28.5 h, 10 µM": 111}
{"smiles": "Cc1cc(C)nc(N/C(=N/C(=O)CCN2C(=O)c3ccccc3C2=O)Nc2cccc(Cl)c2)n1", "note": "[CBK266507]", "viability at 28.5 h, 10 µM": 97}
{"smiles": "COCCN(Cc1nnc(-c2cccs2)o1)C(C(=O)N1CCOCC1)c1ccccc1", "note": "(stereo not drawn) [CBK295190]", "viability at 28.5 h, 10 µM": 104}
{"smiles": "Cc1csc(NC(=O)c2cccn(Cc3cccc([N+](=O)[O-])c3)c2=O)n1", "note": "[CBK294414]", "viability at 28.5 h, 10 µM": 87.4}
{"smiles": "CCC(Sc1ccc2nnc(-c3cccnc3)n2n1)C(=O)O", "note": "(stereo not drawn) [CBK287623]", "viability at 28.5 h, 10 µM": 110}
{"smiles": "Cc1ccn(CCC(=O)NC(Cc2ccsc2)c2nccs2)n1", "note": "(stereo not drawn) [CBK285137]", "viability at 28.5 h, 10 µM": 92.5}
{"smiles": "COc1ccc(S(=O)(=O)N2CCC(C(=O)O)(c3ccccc3)CC2)cc1", "note": "[CBK267572]", "viability at 28.5 h, 10 µM": 94.3}
{"smiles": "Cc1cc(C)n2nc(C(=O)N/N=C/c3ccc(O)cc3)nc2n1", "note": "[CBK261765]", "viability at 28.5 h, 10 µM": 85.4}
{"smiles": "CCOC(=O)c1cccc(-c2ccc(F)cc2F)n1", "note": "[CBK149245]", "viability at 28.5 h, 10 µM": 101}
{"smiles": "Cc1nn2c(=O)cc(C(=O)O)[nH]c2c1-c1ccccc1", "note": "[CBK287129]", "viability at 28.5 h, 10 µM": 88.2}
{"smiles": "COc1cccc(/C=C2/SC(=S)NC2=O)c1OCCCOc1ccccc1C", "note": "[CBK264442]", "viability at 28.5 h, 10 µM": 98.9}
{"smiles": "CC(C)(C)c1ccc(S(=O)(=O)N2CCCCC2CCO)cc1[N+](=O)[O-]", "note": "(stereo not drawn) [CBK200067]", "viability at 28.5 h, 10 µM": 93.9}
{"smiles": "Cc1cc(C)nc(NC(=O)C(C)Oc2ccc(Cl)cc2Cl)n1", "note": "(stereo not drawn) [CBK265600]", "viability at 28.5 h, 10 µM": 90.4}
{"smiles": "CN1C(=O)COc2ccccc2CCCC[C@@H]2[C@H]1CCCN2C(=O)CCCn1cccn1", "note": "[CBK292090]", "viability at 28.5 h, 10 µM": 111}
{"smiles": "NS(=O)(=O)c1ccc2nc(NC(=O)c3ccc(N4C(=O)CCC4=O)cc3)sc2c1", "note": "[CBK291192]", "viability at 28.5 h, 10 µM": 117}
{"smiles": "Fc1cccc(F)c1-c1cc(Nc2ccc(N3CCOCC3)cc2)ncn1", "note": "[CBK037673]", "viability at 28.5 h, 10 µM": 99.5}
{"smiles": "NC(=O)c1cccc(-n2ncc(-c3cccnc3)n2)c1", "note": "[CBK112806]", "viability at 28.5 h, 10 µM": 81.6}
{"smiles": "CN(C)Cc1cc(C[C@@H]2C[C@H](NC(=O)c3ccnc(Cl)c3)C2(C)C)no1", "note": "[CBK289311]", "viability at 28.5 h, 10 µM": 89.6}
{"smiles": "CC(C)(Oc1cccc2ccccc12)C(=O)O", "note": "[CBK012409]", "viability at 28.5 h, 10 µM": 94.5}
{"smiles": "O=C(Nc1ccc2ncccc2c1)c1ccc(F)c(F)c1", "note": "[CBK159810]", "viability at 28.5 h, 10 µM": 78.5}
{"smiles": "CCN1CCN(c2ccc(NC(=S)NC(=O)c3ccccc3Br)cc2)CC1", "note": "[CBK268583]", "viability at 28.5 h, 10 µM": 102}
{"smiles": "Cc1ccccc1C(=O)NC(=S)Nc1sc2c(c1C(N)=O)CCC2", "note": "[CBK262107]", "viability at 28.5 h, 10 µM": 88.9}
{"smiles": "Cc1nn(-c2ccccc2)c2c1C(c1cnn(C)c1)SCC(=O)N2", "note": "(stereo not drawn) [CBK287896]", "viability at 28.5 h, 10 µM": 114}
{"smiles": "O=C1OCc2ccc(NS(=O)(=O)c3ccc(OC(F)(F)F)cc3)cc21", "note": "[CBK043715]", "viability at 28.5 h, 10 µM": 82.8}
{"smiles": "O=C(Cn1ncc2ccccc2c1=O)N1CCC(c2ccccc2)C1", "note": "(stereo not drawn) [CBK281843]", "viability at 28.5 h, 10 µM": 90.7}
{"smiles": "CCNc1nc(=S)[nH]c2sc3c(c12)CCC(C)C3", "note": "(stereo not drawn) [CBK086242]", "viability at 28.5 h, 10 µM": 89.2}
{"smiles": "Cc1ccc(-n2c(=O)[nH]cc(C(=O)Nc3cccc(Cl)c3C)c2=O)cc1C", "note": "[CBK287551]", "viability at 28.5 h, 10 µM": 101}
{"smiles": "CC[C@H]1CN(C(=O)Nc2cccc(OC)c2)CC[C@H]1CC(=O)O", "note": "[CBK288778]", "viability at 28.5 h, 10 µM": 110}
{"smiles": "CS(=O)(=O)N(CC(=O)O)Cc1ccccc1", "note": "[CBK265805]", "viability at 28.5 h, 10 µM": 90.1}
{"smiles": "c1cnc(OC2CCN(Cc3ccc4c(c3)OCO4)CC2)c(OCCN2CCOCC2)n1", "note": "[CBK082925T]", "viability at 28.5 h, 10 µM": 115}
{"smiles": "Cc1ccc(S(=O)(=O)Nc2ccc(S(=O)(=O)Nc3nccs3)cc2)c([N+](=O)[O-])c1", "note": "[CBK267410]", "viability at 28.5 h, 10 µM": 85.9}
{"smiles": "CS(=O)(=O)Nc1ccc(CNC(=O)C2(c3ccccc3)CCCC2)cc1", "note": "[CBK161525]", "viability at 28.5 h, 10 µM": 101}
{"smiles": "CS(=O)(=O)Nc1ccc(C(=O)N2CC(=O)Nc3ccccc32)cc1", "note": "[CBK269827]", "viability at 28.5 h, 10 µM": 90.8}
{"smiles": "Cc1cccc(NC2(C(F)(F)F)N=C(c3ccccc3)NC2=O)n1", "note": "(stereo not drawn) [CBK267476]", "viability at 28.5 h, 10 µM": 92.9}
{"smiles": "CC(C)(C)NC(=O)CN1C(=O)N2CCCN=C2c2ccccc21", "note": "[CBK284404]", "viability at 28.5 h, 10 µM": 89.7}
{"smiles": "O=C(NCc1cc[nH]n1)N1CCCN(Cc2cccs2)CC1", "note": "[CBK305645]", "viability at 28.5 h, 10 µM": 82}
{"smiles": "O=C(c1cccnc1)C1CCN(C(=O)Cc2ccccc2Cl)CC1", "note": "[CBK283690]", "viability at 28.5 h, 10 µM": 90.3}
{"smiles": "Cc1ccc(C2=CCN(CC(=O)N(C)C3CCCCC3)CC2)o1", "note": "[CBK283633]", "viability at 28.5 h, 10 µM": 91.6}
{"smiles": "Cc1ccc(-c2nsc(SCC(=O)c3ccc(Cl)cc3)n2)cc1", "note": "[CBK113177]", "viability at 28.5 h, 10 µM": 92.1}
{"smiles": "CCOC(=O)Cn1c(CCC(=O)O)ccc1-c1ccc(F)cc1", "note": "[CBK265916]", "viability at 28.5 h, 10 µM": 97.8}
{"smiles": "O=C(O)c1cccnc1SC1CC(=O)N(c2cccc(Cl)c2Cl)C1=O", "note": "(stereo not drawn) [CBK269306]", "viability at 28.5 h, 10 µM": 110}
{"smiles": "Cc1cc(OCC(=O)N2CCNC(=O)C2)c2c(C)c(C)c(=O)oc2c1", "note": "[CBK307624]", "viability at 28.5 h, 10 µM": 94.7}
{"smiles": "Cc1cc(C)cc(NC(=O)c2ccccc2NS(=O)(=O)c2cccc(Cl)c2)c1", "note": "[CBK113887]", "viability at 28.5 h, 10 µM": 94.9}
{"smiles": "O=C(Nc1ccccn1)C1CCCN1c1nc(O)cc(C(F)(F)F)n1", "note": "(stereo not drawn) [CBK004254]", "viability at 28.5 h, 10 µM": 91}
{"smiles": "CS(=O)(=O)N1CCc2cc(-c3cn4ccccc4n3)ccc21", "note": "[CBK285190]", "viability at 28.5 h, 10 µM": 85.6}
{"smiles": "O=C(O)CCC(=O)Nc1cccc(NC(=O)c2ccc(Br)cc2)c1", "note": "[CBK300180]", "viability at 28.5 h, 10 µM": 84.6}
{"smiles": "CC(Sc1nnc2[nH]c3ccccc3n12)C(=O)O", "note": "(stereo not drawn) [CBK265822]", "viability at 28.5 h, 10 µM": 99.7}
{"smiles": "CC(C)(C)C(=O)NC(N(Cc1ccccc1)Cc1ccccc1)C(Cl)(Cl)Cl", "note": "(stereo not drawn) [CBK261023]", "viability at 28.5 h, 10 µM": 97.7}
{"test": "in vitro", "details": "human, hela cells, % viability, bulk resorufin, single well", "units": {"viability at 28.5 h, 10 µM": "%"}}
{"smiles": "CCOC(=O)C1(c2ccccc2)CCN(C(=O)CCSC)CC1", "note": "[CBK132184]", "viability at 28.5 h, 10 µM": 113}
{"smiles": "O=C1NC(=S)NC(=O)C1=Cc1ccc(OCc2ccccc2)c(C(=O)O)c1", "note": "[CBK264159]", "viability at 28.5 h, 10 µM": 117}
